Reference: US20260306642A1, “STAT DEGRADERS AND USES THEREOF” (Recludix Pharma, Inc., priority 2023, published 2026)
Where two headings read alike, the source gives them in different places.

How the values were obtained:
pSTAT3 = pSTAT3 (Homo sapiens, UniProt P40763); assay: MSD-pSTAT-PBMC Assay (pSTAT3, IL-6 stimulated); format: cell-based
Text: Cryopreserved Peripheral Blood Mononuclear Cells (PBMC) are from AllCells. Recombinant Human IL-4 and IL-6 are from Peprotech. Mouse monoclonal anti-STAT3 antibody, rabbit monoclonal anti-pY705-STAT3 antibody, rabbit monoclonal Anti-pY641-STAT6 antibody, and lysis buffer are from Cell Signaling Technology (CST). Mouse monoclonal anti-STAT6 antibody is from BioLegend. Assay plates, blocker, and anti-rabbit secondary antibody are from Meso Scale Discovery (MSD).
Cryopreserved PBMCs were thawed out and allowed to recover overnight in IMDM+10% heat-inactivated FBS prior to plating 50,000 (STAT3) or 25,000 (STAT6) cells per well in 96-well U-bottom tissue culture plates. Cells were treated with compound for 3 hrs, then stimulated with 10 ng/mL IL-6 (STAT3) or 1 ng/mL IL-4 (STAT6) for 10 min. Cells were then spun down and washed with ice-cold PBS prior to lysing the cell pellet with 1× lysis buffer (CST) with 1× HALT protease and phosphatase inhibitor cocktail (Thermo). Lysates were transferred to and incubated overnight at 4° C. with shaking in QuickPlex 96-well high bind assay plates (MSD) pre-coated overnight with 30 μL per well of […] mouse monoclonal anti-STAT3 antibody (STAT3) or 2 μg/mL mouse monoclonal anti-STAT6 antibody (STAT6) in 1× PBS, and pre-blocked for 1 hour with 3% Blocker-A (MSD). Captured protein in the assay plates were then washed and probed with 25 μL per well of […] rabbit monoclonal anti-pY705-STAT3 antibody (STAT3) or […] rabbit monoclonal Anti-pY641-STAT6 antibody (STAT6) in 1% Blocker-A for 1 hour at room temperature with shaking, then washed and probed with 25 ul per well of 1 ug/ml Sulfo-TAG Labeled Goat Anti-Rabbit Antibody (MSD) in 1% Blocker-A for 1 hour at room temperature with shaking. Assay plates were then washed and 150 μL of 1× Read Buffer-T (MSD) was added to each well prior to reading on an SQ120 MSD Plate Reader. Assay signal from each sample was subtracted by the signal from unstimulated control wells and normalized to DMSO control wells. IC50 values were calculated using Graph Pad Prism Dose-Response Nonlinear Regression with variable slope. For both pSTAT3 and pSTAT6 A=≤100 nM; B=>100-1000 nM; C=>1000-3000 nM; and D=>3 μM.

STAT6 = target: T1, STAT6 (Homo sapiens, UniProt P42226); assay: STAT6 Fluorescence Polarization (FP) Assay; format: binding
T1 construct: Recombinant STAT6 protein (STAT6(W123-T658))
T1 sequence (P42226 123-658): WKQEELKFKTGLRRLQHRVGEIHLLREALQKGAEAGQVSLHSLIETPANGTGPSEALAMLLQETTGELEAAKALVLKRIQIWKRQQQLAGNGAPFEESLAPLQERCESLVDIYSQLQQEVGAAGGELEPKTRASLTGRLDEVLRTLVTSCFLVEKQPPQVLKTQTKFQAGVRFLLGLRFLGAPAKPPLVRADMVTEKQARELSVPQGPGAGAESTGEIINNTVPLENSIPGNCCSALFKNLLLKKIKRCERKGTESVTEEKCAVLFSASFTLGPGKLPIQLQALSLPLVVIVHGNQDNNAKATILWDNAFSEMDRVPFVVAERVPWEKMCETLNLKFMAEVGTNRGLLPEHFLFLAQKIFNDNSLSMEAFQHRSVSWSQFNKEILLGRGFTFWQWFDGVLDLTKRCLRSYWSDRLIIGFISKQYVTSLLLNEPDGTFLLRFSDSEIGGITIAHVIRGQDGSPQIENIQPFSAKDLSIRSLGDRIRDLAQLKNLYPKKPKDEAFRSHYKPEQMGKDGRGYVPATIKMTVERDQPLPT
Description: An FP assay was developed to determine IC50 values for test substances. Recombinant STAT6 protein (STAT6(W123-T658)) at 250 nM was combined with a fluorescently labeled, phosphotyrosine peptide probe (5-FAM-ApYKPFQDLI-NH2) at 2 nM in FP buffer (10 mM HEPES pH 7.4, 50 mM NaCl, 1 mM EDTA, 0.05% Tween 20, 2 mM DTT). 50 μL of STAT6-probe mixture was added to serial diluted compounds in black, 96-well plates (Greiner BioOne 655076) to a final concentration of 1% DMSO. Reaction components were mixed, and FP was measured after 45-minute incubation at room temperature using a Tecan Spark multimode plate reader. FP signal (mP) was plotted against the log concentration of the test substances and IC50 values were calculated by nonlinear regression analysis using GraphPad Prism software. For STAT6 FP assay, A=≤300 nM; B=>300-3000 nM; C=>3-30 μM; and D=>30 μM.

STAT3 = target: T2, STAT3 (Homo sapiens, UniProt P40763); assay: STAT3 Fluorescence Polarization (FP) Assay; format: binding
T2 construct: Recombinant STAT3 protein (STAT3(G127-I722))
Description: An FP assay was developed to determine IC50 values for test substances.
Recombinant STAT3 protein (STAT3(G127-I722)) at 25 nM was combined with a fluorescently labeled, phosphotyrosine peptide probe (5-FAM-GpYLPQTV-NH2) at 2 nM in FP buffer (10 mM HEPES pH 7.4, 50 mM NaCl, 1 mM EDTA, 0.05% Tween 20, 2 mM DTT). 50 μL of STAT3-probe mixture was added to serial diluted compounds in black, 96-well plates (Greiner BioOne 655076) to a final concentration of 1% DMSO. Reaction components were mixed, and FP was measured after 45-minute incubation at room temperature using a Tecan Spark multimode plate reader. FP signal (mP) was plotted against the log concentration of the test substances and IC50 values were calculated by nonlinear regression analysis using GraphPad Prism software. For STAT3 FP assay, A=≤100 nM; B=>100-1000 nM; C=>1-10 μM; and D=>10 μM.

[1] = compound 3 hrs, then 10 ng/mL IL-6 10 min, pY705-STAT3, read-out: pSTAT3 IC50
[2] = read-out: pSTAT3 IC50, compound 3 hrs, then 10 ng/mL IL-6 10 min, pY705-STAT3

T2 sequence (P40763 127-722): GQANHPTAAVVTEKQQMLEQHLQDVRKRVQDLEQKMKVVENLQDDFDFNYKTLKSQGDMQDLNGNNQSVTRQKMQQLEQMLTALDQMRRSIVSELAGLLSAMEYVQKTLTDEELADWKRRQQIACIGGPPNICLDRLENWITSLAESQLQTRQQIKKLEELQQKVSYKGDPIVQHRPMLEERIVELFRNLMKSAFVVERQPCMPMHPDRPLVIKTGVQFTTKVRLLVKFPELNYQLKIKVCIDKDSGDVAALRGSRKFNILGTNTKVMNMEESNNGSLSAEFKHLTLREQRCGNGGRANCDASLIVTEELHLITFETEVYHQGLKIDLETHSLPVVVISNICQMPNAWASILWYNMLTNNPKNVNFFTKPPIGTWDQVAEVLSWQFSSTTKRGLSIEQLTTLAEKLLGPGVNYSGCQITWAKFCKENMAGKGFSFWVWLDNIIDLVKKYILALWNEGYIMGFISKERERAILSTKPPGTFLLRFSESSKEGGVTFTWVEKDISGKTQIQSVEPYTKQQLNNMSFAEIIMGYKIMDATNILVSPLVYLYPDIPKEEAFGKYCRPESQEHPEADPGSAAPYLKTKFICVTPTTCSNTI
Chain of pSTAT3 (P40763 whole entry): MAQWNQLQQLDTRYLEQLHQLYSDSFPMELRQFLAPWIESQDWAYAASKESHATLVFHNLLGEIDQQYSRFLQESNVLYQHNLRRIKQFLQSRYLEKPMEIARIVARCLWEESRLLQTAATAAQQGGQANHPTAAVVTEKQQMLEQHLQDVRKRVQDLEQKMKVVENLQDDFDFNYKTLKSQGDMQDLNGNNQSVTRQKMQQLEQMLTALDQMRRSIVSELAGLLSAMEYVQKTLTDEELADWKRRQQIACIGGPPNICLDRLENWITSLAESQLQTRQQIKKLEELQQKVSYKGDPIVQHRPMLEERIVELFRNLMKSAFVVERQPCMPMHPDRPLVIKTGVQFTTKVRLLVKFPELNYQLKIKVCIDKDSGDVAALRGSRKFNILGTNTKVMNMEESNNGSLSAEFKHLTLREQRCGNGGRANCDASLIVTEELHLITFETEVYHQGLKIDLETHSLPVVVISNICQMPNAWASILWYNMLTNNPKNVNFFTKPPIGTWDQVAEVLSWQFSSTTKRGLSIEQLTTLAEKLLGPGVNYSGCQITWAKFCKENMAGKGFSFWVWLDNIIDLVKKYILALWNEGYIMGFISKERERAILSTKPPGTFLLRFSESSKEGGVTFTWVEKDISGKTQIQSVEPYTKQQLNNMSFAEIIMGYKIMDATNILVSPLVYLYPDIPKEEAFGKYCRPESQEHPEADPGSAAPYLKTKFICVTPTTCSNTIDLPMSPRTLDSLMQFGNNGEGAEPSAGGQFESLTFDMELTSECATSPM

Row | Structure (SMILES) | IC50 (pSTAT3; [1]) [µM] | IC50 (STAT6) [µM] | IC50 (STAT3) [µM] | IC50 (pSTAT3; [2]) [µM]
1 | Cn1c(=O)n(C2CCC(=O)NC2=O)c2ccc(C#CCCC3CCN(c4ccncc4C4CN(C(=O)[C@@H]5CC[C@@H]6CCC[C@H](NC(=O)c7cc8cc(C(F)P(=O)(O)O)ccc8s7)C(=O)N65)C4)CC3)cc21 (stereo partly drawn) [Compound 36, ((2-(((3S,6S,9aS)-3-(3-(4-(4-(4-(1-(2,6-dioxopiperidin-3-yl)-3-methyl-2-oxo-2,3-dihydro-1H-benzo[d]imidazol-5-yl)but-3-yn-1-yl)piperidin-1-yl)pyridin-3-yl)azetidine-1-carbonyl)-5-oxooctahydro-1H-pyrrolo[1,2-a]azepin-6-yl)carbamoyl)benzo[b]thiophen-5-yl)fluoromethyl)phosphonic acid] | 0.1 to 1 | > 30 | < 0.1 | 
2 | Cn1c(=O)n(C2CCC(=O)NC2=O)c2ccc(C#CCCC3CCN(c4ccncc4C4CN(C(=O)[C@@H]5CC[C@@H]6CCC[C@H](NC(=O)c7cc8cc([C@H](F)P(=O)(O)O)ccc8s7)C(=O)N65)C4)CC3)cc21 (stereo partly drawn) [Compound 37, ((1R)-(2-(((3S,6S,9aS)-3-(3-(4-(4-(4-(1-(2,6-dioxopiperidin-3-yl)-3-methyl-2-oxo-2,3-dihydro-1H-benzo[d]imidazol-5-yl)but-3-yn-1-yl)piperidin-1-yl)pyridin-3-yl)azetidine-1-carbonyl)-5-oxooctahydro-1H-pyrrolo[1,2-a]azepin-6-yl)carbamoyl)benzo[b]thiophen-5-yl)fluoromethyl)phosphonic acid] | 0.1 to 1 | 3 to 30 | < 0.1 | 
3 | Cc1ncsc1-c1ccc(CNC(=O)[C@@H]2C[C@@H](O)CN2C(=O)[C@@H](NCCCCOc2ccncc2C2CN(C(=O)[C@@H]3CC[C@@H]4CCC[C@H](NC(=O)c5cc6cc(C(F)(F)P(=O)(O)O)ccc6s5)C(=O)N43)C2)C(C)(C)C)cc1 [Compound 2, (difluoro(2-(((3S,6S,9aS)-3-(3-(4-(4-(((S)-1-((2S,4R)-4-hydroxy-2-((4-(4-methylthiazol-5-yl)benzyl)carbamoyl)pyrrolidin-1-yl)-3,3-dimethyl-1-oxobutan-2-yl)amino)butoxy)pyridin-3-yl)azetidine-1-carbonyl)-5-oxooctahydro-1H-pyrrolo[1,2-a]azepin-6-yl)carbamoyl)benzo[b]thiophen-5-yl)methyl)phosphonic acid] | > 3 | 3 to 30 | < 0.1 | 
4 | Cc1ncsc1-c1ccc(CNC(=O)[C@@H]2C[C@@H](O)CN2C(=O)[C@@H](NC(=O)C2CCN(c3ccncc3C3CN(C(=O)[C@@H]4CC[C@@H]5CCC[C@H](NC(=O)c6cc7cc(C(F)(F)P(=O)(O)O)ccc7s6)C(=O)N54)C3)CC2)C(C)(C)C)cc1 [Compound 8, (difluoro(2-(((3S,6S,9aS)-3-(3-(4-(4-(((S)-1-((2S,4R)-4-hydroxy-2-((4-(4-methylthiazol-5-yl)benzyl)carbamoyl)pyrrolidin-1-yl)-3,3-dimethyl-1-oxobutan-2-yl)carbamoyl)piperidin-1-yl)pyridin-3-yl)azetidine-1-carbonyl)-5-oxooctahydro-1H-pyrrolo[1,2-a]azepin-6-yl)carbamoyl)benzo[b]thiophen-5-yl)methyl)phosphonic acid] | 1 to 3 | 0.3 to 3 | < 0.1 | 
5 | O=C1CCC(c2ccc(OCC(=O)N3CCN(c4ccncc4C4CN(C(=O)[C@@H]5CC[C@@H]6CCC[C@H](NC(=O)c7cc8cc(C(F)(F)P(=O)(O)O)ccc8s7)C(=O)N65)C4)CC3)cc2)C(=O)N1 (stereo partly drawn) [Compound 28, ((2-(((3S,6S,9aS)-3-(3-(4-(4-(2-(4-(2,6-dioxopiperidin-3-yl)phenoxy)acetyl)piperazin-1-yl)pyridin-3-yl)azetidine-1-carbonyl)-5-oxooctahydro-1H-pyrrolo[1,2-a]azepin-6-yl)carbamoyl)benzo[b]thiophen-5-yl)difluoromethyl)phosphonic acid] | > 3 | 3 to 30 | < 0.1 | 
6 | Cc1ncsc1-c1ccc([C@H](C)NC(=O)[C@@H]2C[C@@H](O)CN2C(=O)[C@@H](NC(=O)COCCOCC(=O)NC2(c3ccccn3)CN(C(=O)[C@@H]3CC[C@H]4CCCC[C@H](NC(=O)c5cc6cc(C(F)(F)P(=O)(O)O)ccc6s5)C(=O)N43)C2)C(C)(C)C)cc1 [Compound 31, (difluoro(2-(((3S,6S,10aR)-3-(3-(2-(2-(2-(((S)-1-((2S,4R)-4-hydroxy-2-(((S)-1-(4-(4-methylthiazol-5-yl)phenyl)ethyl)carbamoyl)pyrrolidin-1-yl)-3,3-dimethyl-1-oxobutan-2-yl)amino)-2-oxoethoxy)ethoxy)acetamido)-3-(pyridin-2-yl)azetidine-1-carbonyl)-5-oxodecahydropyrrolo[1,2-a]azocin-6-yl)carbamoyl)benzo[b]thiophen-5-yl)methyl)phosphonic acid] |  | 3 to 30 | < 0.1 | > 3
7 | O=C(COc1cccc2c1C(=O)N(C1CCC(=O)NC1=O)C2=O)NCCOCCOCCC(=O)NC1(c2ccccn2)CN(C(=O)[C@@H]2CC[C@H]3CCCC[C@H](NC(=O)c4cc5cc(C(F)(F)P(=O)(O)O)ccc5s4)C(=O)N32)C1 (stereo partly drawn) [Compound 30, ((2-(((3S,6S,10aR)-3-(3-(3-(2-(2-(2-((2-(2,6-dioxopiperidin-3-yl)-1,3-dioxoisoindolin-4-yl)oxy)acetamido)ethoxy)ethoxy)propanamido)-3-(pyridin-2-yl)azetidine-1-carbonyl)-5-oxodecahydropyrrolo[1,2-a]azocin-6-yl)carbamoyl)benzo[b]thiophen-5-yl)difluoromethyl)phosphonic acid] |  | 3 to 30 | < 0.1 | > 3
8 | O=C1CCC(c2ccc(OCCOc3ccncc3C3CN(C(=O)[C@@H]4CC[C@@H]5CCC[C@H](NC(=O)c6cc7cc(C(F)(F)P(=O)(O)O)ccc7s6)C(=O)N54)C3)cc2)C(=O)N1 (stereo partly drawn) [Compound 9, ((2-(((3S,6S,9aS)-3-(3-(4-(2-(4-(2,6-dioxopiperidin-3-yl)phenoxy)ethoxy)pyridin-3-yl)azetidine-1-carbonyl)-5-oxooctahydro-1H-pyrrolo[1,2-a]azepin-6-yl)carbamoyl)benzo[b]thiophen-5-yl)difluoromethyl)phosphonic acid] | > 3 | 3 to 30 | < 0.1 | 
